Results published in patent US20240294495A1, “COMPOUNDS THAT MEDIATE PROTEIN DEGRADATION AND METHODS OF USE THEREOF” (Monte Rosa Therapeutics, Inc., priority 2021, published 2024).

Assays:
CRBN-DDB1 = CRBN-DDB1 (Homo sapiens, UniProt Q96SW2); test: Compound binding to CRBN by HTRF assay; settings: CRBN-DDB1 2.5 nM, Cy5-Thalidomide 100 nM probe, 30 min incubation; read-out: HTRF Class (Cereblon binding, HTRF IC50)
Procedure: Compound activity was monitored in a Homogenous Time-Resolved Fluorescence (HTRF) assay using 1-[5-({2-[2-(2-{[2-(2,6-dioxopiperidin-3-yl)-1,3-dioxo-2,3-dihydro-1H-isoindol-4-yl]oxy}acetamido)ethoxy]ethyl}carbamoyl)pentyl]-3,3-dimethyl-2-[(1E,3E)-5-[(2E)-1,3,3-trimethyl-5-sulfo-2,3-dihydro-1H-indol-2-ylidene]penta-1,3-dien-1-yl]-3H-indol-1-ium-5-sulfonate as a fluorescent probe. Biochemical assays were conducted in Greiner white 384 well HiBase plates (Cat. No 784075-25) in 10 μL total volume. A one pot detection solution of CRBN-DDB1 (2.5 nM), Anti-His Terbium Cryptate Gold (1×, PerkinElmer Cat. #: 61HI2TLB), and Cy5-Thalidomide (100 nM, Tenova Cat.: T52461) was prepared in 20 mM HEPES, 20 mM NaCl, 0.2 mM TCEP, 0.2 mM EDTA, and 0.005% Tween20 was dispensed to each assay plate. Compounds were stored in dry, ambient temperatures at 10 mM. A 10-point, 1:3 dilution series was prepared from 10 mM stock concentrations in Echo-compatible LDV plates. 10 nL of each compound dilution series was dispensed into assays wells using an Echo 650 (Labcyte inc. USA). 10 nL of 10 mM Lenalidomide was transferred into the active-control wells for the assay and 10 nL of DMSO was transferred into the neutral-control wells. The assay was then allowed to incubate for 30 min at ambient temperature after transferring compound. Plate measurements were taken on a Pherastar FSX (BMG Labtech, Germany) using the HTRF Red filter (Ex. 337 nm, em1: 620 nm, em2: 665 nm) (Flashes: 50, Integration time: 60-400 us, Z-height: 10 mm, Ratio-multiplier: 10,000). The HTRF signal was then subsequently normalized to the neutral and active controls. Analysis and IC50 values were derived using KNIME analytics (KNIME Zurich) transformation and fitting within Collaborative Drug Discovery (Collaborative Drug Discovery USA). Ki was derived from the geometric mean of the IC50 values using the Cheng-Prustoff transformation.
(§1) In Table 2, each compound is assigned a class (HTRF class) indicating the ability for Cereblon binding by means of their HTRF IC50 values according to Example 3: A, B or C. According to the code, A represents an IC50 value of <100 nM, B represents an IC50 value>100 nM and <1000 nM, C represents an IC50 value>1000 nM. IF Class assigns each compound a code indicating the ability for GSPT1 degradation: A, B or C. According to the code, A represents a DC50 value of <30 nM, B represents a DC50 value>30 nM and <300 nM and C represents a DC50 value of >300 nM.

GSPT1 = target: T1, GSPT1 (Homo sapiens, UniProt P15170+Q96SW2); test: Immunofluorescence assay for GSPT1 degradation in CAL-51 cells; assay type: cell-based; settings: 6 h treatment, read-out: IF Class (GSPT1 degradation, DC50)
T1 construct: CAL-51 cells were purchased from DSMZ (cat. Number ACC302); endogenous in cells; host or cells: CAL-51 (DSMZ ACC302)
T1 sequence (P15170 whole entry): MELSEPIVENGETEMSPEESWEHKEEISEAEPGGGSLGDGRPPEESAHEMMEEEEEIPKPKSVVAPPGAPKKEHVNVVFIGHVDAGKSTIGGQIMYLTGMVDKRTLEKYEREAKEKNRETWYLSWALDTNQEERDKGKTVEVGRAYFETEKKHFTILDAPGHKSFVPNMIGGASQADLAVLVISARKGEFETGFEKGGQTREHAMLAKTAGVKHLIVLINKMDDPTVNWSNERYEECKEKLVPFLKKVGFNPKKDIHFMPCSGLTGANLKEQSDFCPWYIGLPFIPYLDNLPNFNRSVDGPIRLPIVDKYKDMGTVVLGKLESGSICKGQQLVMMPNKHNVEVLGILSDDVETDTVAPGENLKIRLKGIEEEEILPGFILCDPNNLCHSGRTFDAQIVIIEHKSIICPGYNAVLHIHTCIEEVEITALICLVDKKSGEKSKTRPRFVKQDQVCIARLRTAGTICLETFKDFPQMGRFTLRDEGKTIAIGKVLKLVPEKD
T1 sequence (Q96SW2 whole entry): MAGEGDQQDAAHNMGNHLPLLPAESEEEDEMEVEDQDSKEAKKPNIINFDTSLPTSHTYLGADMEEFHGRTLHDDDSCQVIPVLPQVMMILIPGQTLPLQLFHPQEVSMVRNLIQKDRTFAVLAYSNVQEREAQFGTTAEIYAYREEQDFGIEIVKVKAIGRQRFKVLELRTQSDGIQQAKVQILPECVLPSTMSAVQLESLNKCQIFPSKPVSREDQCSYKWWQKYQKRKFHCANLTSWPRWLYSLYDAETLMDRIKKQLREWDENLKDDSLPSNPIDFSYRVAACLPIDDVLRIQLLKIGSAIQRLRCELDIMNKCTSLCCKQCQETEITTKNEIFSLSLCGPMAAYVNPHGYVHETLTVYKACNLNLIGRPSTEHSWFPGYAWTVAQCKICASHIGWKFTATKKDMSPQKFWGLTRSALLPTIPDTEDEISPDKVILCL
T1 sequence (Q16531 2-1140 partner limits assumed): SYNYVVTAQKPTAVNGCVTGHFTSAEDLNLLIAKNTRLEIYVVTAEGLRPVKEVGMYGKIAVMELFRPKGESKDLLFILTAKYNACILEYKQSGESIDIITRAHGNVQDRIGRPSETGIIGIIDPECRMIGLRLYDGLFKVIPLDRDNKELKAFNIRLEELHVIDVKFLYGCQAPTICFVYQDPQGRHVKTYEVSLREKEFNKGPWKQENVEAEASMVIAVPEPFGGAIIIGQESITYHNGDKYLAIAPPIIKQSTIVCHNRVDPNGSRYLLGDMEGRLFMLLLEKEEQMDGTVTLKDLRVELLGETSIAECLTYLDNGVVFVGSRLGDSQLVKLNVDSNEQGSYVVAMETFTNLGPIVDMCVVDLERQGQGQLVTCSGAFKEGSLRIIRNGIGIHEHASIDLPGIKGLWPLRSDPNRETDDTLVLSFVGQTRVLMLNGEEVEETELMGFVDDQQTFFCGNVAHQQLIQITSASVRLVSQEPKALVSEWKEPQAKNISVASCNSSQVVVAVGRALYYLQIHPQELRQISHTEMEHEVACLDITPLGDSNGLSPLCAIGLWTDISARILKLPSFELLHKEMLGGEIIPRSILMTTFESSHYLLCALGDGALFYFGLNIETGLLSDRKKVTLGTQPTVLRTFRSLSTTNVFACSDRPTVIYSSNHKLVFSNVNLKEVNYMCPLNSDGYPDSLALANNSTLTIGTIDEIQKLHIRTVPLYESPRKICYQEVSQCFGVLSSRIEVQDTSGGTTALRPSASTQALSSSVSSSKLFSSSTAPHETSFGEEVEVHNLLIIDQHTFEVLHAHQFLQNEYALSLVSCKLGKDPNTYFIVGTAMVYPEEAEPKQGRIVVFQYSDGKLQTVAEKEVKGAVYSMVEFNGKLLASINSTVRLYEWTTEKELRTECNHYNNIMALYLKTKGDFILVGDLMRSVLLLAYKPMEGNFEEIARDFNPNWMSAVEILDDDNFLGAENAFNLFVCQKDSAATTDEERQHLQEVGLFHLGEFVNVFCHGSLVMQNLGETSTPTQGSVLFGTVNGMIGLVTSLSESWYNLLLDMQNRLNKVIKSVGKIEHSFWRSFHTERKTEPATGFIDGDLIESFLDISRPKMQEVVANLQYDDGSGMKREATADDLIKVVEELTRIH
Procedure: The representative compounds were tested in an immunofluorescence assay for their activity to degrade GSPT1. CAL-51 cells were purchased from DSMZ (cat. Number ACC302), sub-cultured in 90% Dulbecco's MEM (4.5 g/L glucose, Gibco 11965)+10% heat inactivated FBS (BioConcept, 2-01F136I) and incubated at 37° C., 5% CO2. For the assay imaging microtiter plate Cell Carrier 96 Ultra (Perkin Elmer 6055302) were pre-coated with Fibronectin (Sigma F085, 30 μl at 0.2 μg/mL) in PBS (100 μL, Gibco 14190) for 45 min at room temperature, rinsed with PBS and CAL-51 cells (30K cells/well) were plated and let to adhere overnight. Cells were treated with compounds typically using a serial dilution ranging from 30 μM to 0.1 nM for 6 h. Compounds were stored at 10 mM DMSO stocks. Vehicle (DMSO), positive (CC-885, 10 μM) and rescue controls (positive control plus 0.2 μM bortezomib) were also included at this stage. Cells were subsequently rinsed with PBS and fixed in 10% Formalin solution (50 μl, Sigma HT5011)) for 20 min at room temperature. Following three consecutive PBS washes (100 μL), cells were permeabilized in 0.1% Triton X-100 in PBS (Sigma 93443, 50 μl) for 15 min at room temperature. Following three further PBS washes, 50 μl blocking buffer (1% BSA, Sigma A4503, in PBS) was added for 45 min for signal-to noise reduction. Primary antibody (human GSPT1, Sigma HPA052488) was diluted in blocking buffer (dil.1/300, 35 μL/well) and incubated with the cells overnight at 4° C. After three PBS washes, Alexa-fluor 488 coupled secondary antibodies (Invitrogen, A32731, dil.1/1000), Alexa-fluor 647-Phalloidin (Invitrogen, A22287, dil.1/200) and DAPI (Thermo, #62248, dil.1/1000) were diluted in blocking buffer and incubated with the samples for 2 h at room temperature. After three final PBS washes, samples were conserved in 100 μL PBS in the dark, until measurement. Image acquisition was performed on the Operetta High-Content Imager (Perkin-Elmer). Fluorescence intensity of […] (GSPT1), Alexa-Fluor 647 (Actin) and DAPI (Nucleus) were measured. For the determination of GSPT1 DC50 values, a custom algorithm implemented in the PerkinElmer image analysis software Harmony-Acapella® was developed. After user-defined setting of adjustment parameters, the analysis was run identically without human intervention for all image fields. DAPI staining of the nuclei was used to determine the location of cells using standard nuclei detection modules. Segmentation artifacts were removed by threshold-based filters for area, roundness and intensity. The outline of the cells was determined analogously from the sum of the normalized, smoothed DAPI and Actin channel, starting from each nucleus. The Alexa-Fluor 488 (GSPT1) signal intensity in each cell was finally measured, in order to obtain a Mean intensity per cell. GSPT1 degradation (DC50) was calculated after normalization to controls and data import in CDD vault Database, using non-linear regression.
as §1

CRBN-DDB1, sequence (Q96SW2 whole entry): as the sequence (Q96SW2 whole entry) above
CRBN-DDB1, sequence (Q16531 whole entry partner): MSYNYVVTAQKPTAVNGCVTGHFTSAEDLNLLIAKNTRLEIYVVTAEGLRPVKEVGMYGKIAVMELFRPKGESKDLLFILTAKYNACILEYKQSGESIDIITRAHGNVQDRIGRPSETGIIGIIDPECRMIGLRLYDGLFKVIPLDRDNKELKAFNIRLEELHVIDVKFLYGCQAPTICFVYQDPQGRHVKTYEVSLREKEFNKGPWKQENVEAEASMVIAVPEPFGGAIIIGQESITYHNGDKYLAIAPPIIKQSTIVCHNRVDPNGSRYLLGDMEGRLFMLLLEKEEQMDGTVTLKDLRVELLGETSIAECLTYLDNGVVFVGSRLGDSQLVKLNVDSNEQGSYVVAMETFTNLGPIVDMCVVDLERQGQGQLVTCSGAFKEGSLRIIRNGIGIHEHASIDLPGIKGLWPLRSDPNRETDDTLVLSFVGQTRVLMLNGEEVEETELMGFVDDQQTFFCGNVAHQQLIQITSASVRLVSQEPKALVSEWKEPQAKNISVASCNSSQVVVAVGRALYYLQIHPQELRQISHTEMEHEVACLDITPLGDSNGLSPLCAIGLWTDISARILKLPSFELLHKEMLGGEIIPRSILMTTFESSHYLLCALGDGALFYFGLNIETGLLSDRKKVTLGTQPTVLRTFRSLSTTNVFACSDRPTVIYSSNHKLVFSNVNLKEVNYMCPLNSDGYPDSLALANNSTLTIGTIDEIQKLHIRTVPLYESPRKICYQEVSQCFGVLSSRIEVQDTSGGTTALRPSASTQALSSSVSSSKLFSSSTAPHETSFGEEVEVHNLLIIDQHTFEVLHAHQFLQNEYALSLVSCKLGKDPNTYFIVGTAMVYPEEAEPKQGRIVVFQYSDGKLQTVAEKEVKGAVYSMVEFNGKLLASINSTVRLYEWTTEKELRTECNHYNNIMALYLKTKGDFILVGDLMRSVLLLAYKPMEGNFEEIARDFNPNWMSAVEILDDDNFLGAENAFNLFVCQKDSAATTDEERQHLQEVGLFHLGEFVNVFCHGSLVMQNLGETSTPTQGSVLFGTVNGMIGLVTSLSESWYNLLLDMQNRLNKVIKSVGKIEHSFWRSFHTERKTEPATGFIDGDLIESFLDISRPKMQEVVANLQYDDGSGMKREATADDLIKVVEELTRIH

| SMILES | IC50 (CRBN-DDB1) [nM] | DC50 (GSPT1) [nM] |
| --- | --- | --- |
| O=C1CCC(c2c(F)cc(N3CC(CC(=O)Nc4cc(OC(F)(F)F)ccc4F)C3)cc2F)C(=O)N1 (stereo not drawn) [Compound 9, 2-(1-(4-(2,6-dioxopiperidin-3-yl)-3,5-difluorophenyl)azetidin-3-yl)-N-(2-fluoro-5-(trifluoromethoxy)phenyl)acetamide] | 100 to 1000 | < 30 |
| O=C1CCC(c2c(F)cc(N3CC(NC(=O)Cc4ccc(Cl)cn4)C3)cc2F)C(=O)N1 (stereo not drawn) [Compound 10, 2-(5-chloropyridin-2-yl)-N-(1-(4-(2,6-dioxopiperidin-3-yl)-3,5-difluorophenyl)azetidin-3-yl)acetamide] | < 100 | > 300 |
| O=C1CCC(c2c(F)cc(N3CC(NC(=O)Cc4ccc(Cl)c(F)c4)C3)cc2F)C(=O)N1 (stereo not drawn) [Compound 14, 2-(4-chloro-3-fluorophenyl)-N-(1-(4-(2,6-dioxopiperidin-3-yl)-3,5-difluorophenyl)azetidin-3-yl)acetamide] | 100 to 1000 | > 300 |
| O=C1CCC(c2c(F)cc(N3CC(NC(=O)Cc4c(F)cc(Cl)cc4F)C3)cc2F)C(=O)N1 (stereo not drawn) [Compound 16, 2-(4-chloro-2,6-difluorophenyl)-N-(1-(4-(2,6-dioxopiperidin-3-yl)-3,5-difluorophenyl)azetidin-3-yl) acetamide] | 100 to 1000 | 30 to 300 |
| O=C1CCC(c2c(F)cc(N3CC(NC(=O)Cc4ccc(F)c(F)c4)C3)cc2F)C(=O)N1 (stereo not drawn) [Compound 17, 2-(3,4-difluorophenyl)-N-(1-(4-(2,6-dioxopiperidin-3-yl)-3,5-difluorophenyl)azetidin-3-yl)acetamide] | 100 to 1000 | > 300 |
| C[C@@H]1CCCN1c1ccc(CC(=O)NC2CN(c3cc(F)c(C4CCC(=O)NC4=O)c(F)c3)C2)cn1 (stereo partly drawn) [Compound 19, N-(1-(4-(2,6-dioxopiperidin-3-yl)-3,5-difluorophenyl)azetidin-3-yl)-2-(6-((R)-2-methylpyrrolidin-1-yl)pyridin-3-yl)acetamide] | < 100 | > 300 |
| O=C1CCC(c2c(F)cc(N3CC(NC(=O)Cc4ccc(C5CCC5)cc4)C3)cc2F)C(=O)N1 (stereo not drawn) [Compound 20, 2-(4-cyclobutylphenyl)-N-(1-(4-(2,6-dioxopiperidin-3-yl)-3,5-difluorophenyl)azetidin-3-yl)acetamide] | 100 to 1000 | > 300 |

The remaining lines, values ahead:

| IC50 (CRBN-DDB1) [nM] | DC50 (GSPT1) [nM] | SMILES |
| --- | --- | --- |
| 100 to 1000 | 30 to 300 | O=C1CCC(c2c(F)cc(N3CC(CC(=O)Nc4ccc(F)c(OC(F)F)c4)C3)cc2F)C(=O)N1 (stereo not drawn) [Compound 6, N-(3-(difluoromethoxy)-4-fluorophenyl)-2-(1-(4-(2,6-dioxopiperidin-3-yl)-3,5-difluorophenyl)azetidin-3-yl)acetamide] |
| 100 to 1000 | > 300 | Cc1cc(F)cc(CC(=O)NC2CN(c3cc(F)c(C4CCC(=O)NC4=O)c(F)c3)C2)c1 (stereo not drawn) [Compound 7, N-(1-(4-(2,6-dioxopiperidin-3-yl)-3,5-difluorophenyl)azetidin-3-yl)-2-(3-fluoro-5-methylphenyl)acetamide] |
| 100 to 1000 | > 300 | O=C1CCC(c2c(F)cc(N3CC(NC(=O)Cc4cc(F)cc(F)c4)C3)cc2F)C(=O)N1 (stereo not drawn) [Compound 8, 2-(3,5-difluorophenyl)-N-(1-(4-(2,6-dioxopiperidin-3-yl)-3,5-difluorophenyl)azetidin-3-yl) acetamide] |
| 100 to 1000 | < 30 | O=C1CCC(c2c(F)cc(N3CC(NC(=O)Cc4ccc(F)cc4F)C3)cc2F)C(=O)N1 (stereo not drawn) [Compound 11, 2-(2,4-difluorophenyl)-N-(1-(4-(2,6-dioxopiperidin-3-yl)-3,5-difluorophenyl)azetidin-3-yl)acetamide] |
| < 100 | 30 to 300 | O=C1CCC(c2c(F)cc(N3CC(NC(=O)Cc4cc(Cl)ccc4F)C3)cc2F)C(=O)N1 (stereo not drawn) [Compound 12, 2-(5-chloro-2-fluorophenyl)-N-(1-(4-(2,6-dioxopiperidin-3-yl)-3,5-difluorophenyl)azetidin-3-yl)acetamide] |
| 100 to 1000 | > 300 | O=C1CCC(c2c(F)cc(N3CC(NC(=O)Cc4ccc(F)c(Cl)c4)C3)cc2F)C(=O)N1 (stereo not drawn) [Compound 13, 2-(3-chloro-4-fluorophenyl)-N-(1-(4-(2,6-dioxopiperidin-3-yl)-3,5-difluorophenyl)azetidin-3-yl)acetamide] |
| 100 to 1000 | > 300 | O=C1CCC(c2c(F)cc(N3CC(NC(=O)Cc4ncc(Cl)cc4F)C3)cc2F)C(=O)N1 (stereo not drawn) [Compound 15, 2-(5-chloro-3-fluoropyridin-2-yl)-N-(1-(4-(2,6-dioxopiperidin-3-yl)-3,5-difluorophenyl)azetidin-3-yl)acetamide] |
| 100 to 1000 | < 30 | Cc1c(Cl)cc(CC(=O)NC2CN(c3cc(F)c(C4CCC(=O)NC4=O)c(F)c3)C2)cc1CN1CCOCC1 (stereo not drawn) [Compound 18, 2-(3-chloro-4-methyl-5-(morpholinomethyl)phenyl)-N-(1-(4-(2,6-dioxopiperidin-3-yl)-3,5-difluorophenyl)azetidin-3-yl)acetamide] |
| 100 to 1000 | > 300 | O=C1CCC(c2c(F)cc(N3CC(NC(=O)C45CC(c6ccccc6)(C4)C5)C3)cc2F)C(=O)N1 (stereo not drawn) [Compound 21, N-(1-(4-(2,6-dioxopiperidin-3-yl)-3,5-difluorophenyl)azetidin-3-yl)-3-phenylbicyclo [1.1.1]pentane-1-carboxamide] |
| 100 to 1000 | > 300 | Cc1cc(CC(=O)NC2CN(c3cc(F)c(C4CCC(=O)NC4=O)c(F)c3)C2)ncc1Cl (stereo not drawn) [Compound 22, 2-(5-chloro-4-methylpyridin-2-yl)-N-(1-(4-(2,6-dioxopiperidin-3-yl)-3,5-difluorophenyl)azetidin-3-yl)acetamide] |
| 100 to 1000 | > 300 | CC(C)(C)C12CC(C(=O)NC3CN(c4cc(F)c(C5CCC(=O)NC5=O)c(F)c4)C3)(C1)C2 (stereo not drawn) [Compound 23, 3-(tert-butyl)-N-(1-(4-(2,6-dioxopiperidin-3-yl)-3,5-difluorophenyl)azetidin-3-yl) bicyclo[1.1.1]pentane-1-carboxamide] |
